# Laboratory results published in patent publication US9265773B2, “Tetracyclic heterocycle compounds and methods of use thereof for the treatment of viral diseases” (priority 2011, dated 2016).
# Columns and labels:
# [1] = test system: HCV replicon genotype 1a; experiment: microbe, parasite or virus in culture; type: cell-based; conditions: genotype 1a replicon cells, incubated 96 hours, NS3/4A ELISA readout
# [2] = test system: HCV replicon genotype 1b; experiment: microbe, parasite or virus in culture; type: cell-based; conditions: genotype 1b replicon cells, incubated 96 hours, NS3/4A ELISA readout
smiles,measurement,setting,value
CNC(=O)c1c(-c2ccc(F)cc2)oc2cc(N(C)S(C)(=O)=O)c(-c3ccc4c(n3)-c3cc5c(F)cccc5n3C(CNC(C)C(=O)O)O4)cc12 (stereo not drawn) [Compound 117],IC50,"[1]; Hepatitis C virus, 96 h",74 nM
same,IC50,"[2]; Hepatitis C virus, 96 h",7.5 nM
CCOC(=O)C(C)NCC1Oc2ccc(-c3cc4c(C(=O)NC)c(-c5ccc(F)cc5)oc4cc3N(C)S(C)(=O)=O)nc2-c2cc3c(F)cccc3n21 (stereo not drawn) [Compound 118],IC50,"[1]; Hepatitis C virus, 96 h",19 nM
same,IC50,"[2]; Hepatitis C virus, 96 h",4 nM
CCOC(=O)CNCC1Oc2ccc(-c3cc4c(C(=O)NC)c(-c5ccc(F)cc5)oc4cc3N(C)S(C)(=O)=O)nc2-c2cc3c(F)cccc3n21 (stereo not drawn) [Compound 119],IC50,"[1]; Hepatitis C virus, 96 h",17 nM
same,IC50,"[2]; Hepatitis C virus, 96 h",5.1 nM
CNC(=O)c1c(-c2ccc(F)cc2)oc2cc(N(C)S(C)(=O)=O)c(-c3ccc4c(n3)-c3cc5c(F)cccc5n3C(CNCCOC)O4)cc12 (stereo not drawn) [Compound 120],IC50,"[1]; Hepatitis C virus, 96 h",4.3 nM
same,IC50,"[2]; Hepatitis C virus, 96 h",2.1 nM
"CNC(=O)c1c(-c2ccc(F)cc2)oc2cc(N(C)S(C)(=O)=O)c(-c3ccc4c(n3)-c3cc5c(F)cccc5n3C(CN(C)C)O4)cc12 (stereo not drawn) [Compound 121, 5-(6-((dimethylamino)methyl)-11-fluoro-6H-pyrido[2′,3′:5,6][1,3]oxazino[3,4-a]indol-2-yl)-2-(4-fluorophenyl)-N-methyl-6-(N-methylmethylsulfonamido)benzofuran-3-carboxamide]",IC50,"[1]; Hepatitis C virus, 96 h",3 nM
same,IC50,"[2]; Hepatitis C virus, 96 h",7.5 nM
"CNC(=O)c1c(-c2ccc(F)cc2)oc2cc(N(C)S(C)(=O)=O)c(-c3ccc4c(n3)-c3cc5c(F)cccc5n3C(CN(C)C)O4)cc12 (stereo not drawn) [Compound 122, 5-(6-((dimethylamino)methyl)-11-fluoro-6H-pyrido[2′,3′:5,6][1,3]oxazino[3,4-a]indol-2-yl)-2-(4-fluorophenyl)-N-methyl-6-(N-methylmethylsulfonamido)benzofuran-3-carboxamide]",IC50,[1],5.1 nM
same,IC50,[2],5.2 nM
"CNC(=O)c1c(-c2ccc(F)cc2)oc2cc(N(C)S(C)(=O)=O)c(-c3ccc4c(n3)-c3cc5c(F)cccc5n3C(CN3CCOCC3)O4)cc12 (stereo not drawn) [Compound 123, 5-(11-fluoro-6-(morpholinomethyl)-6H-pyrido[2′,3′:5,6][1,3]oxazino[3,4-a]indol-2-yl)-2-(4-fluorophenyl)-N-methyl-6-(N-methylmethylsulfonamido)benzofuran-3-carboxamide]",IC50,"[1]; Hepatitis C virus, 96 h",3.4 nM
same,IC50,"[2]; Hepatitis C virus, 96 h",3.6 nM
"CNC(=O)c1c(-c2ccc(F)cc2)oc2cc(N(C)S(C)(=O)=O)c(-c3ccc4c(n3)-c3cc5c(F)cccc5n3C(CNC(=O)[C@@H]3CCCN3C(=O)OC)O4)cc12 (stereo partly drawn) [Compound 124, (2S)-methyl 2-(((11-fluoro-2-(2-(4-fluorophenyl)-3-(methylcarbamoyl)-6-(N-methylmethylsulfonamido)benzofuran-5-yl)-6H-pyrido[2′,3′:5,6][1,3]oxazino[3,4-a]indol-6-yl)methyl)carbamoyl)pyrrolidine-1-carboxylate]",IC50,[1],19 nM
same,IC50,[2],4.5 nM
CNC(=O)c1c(-c2ccc(F)cc2)oc2cc(N(C)S(C)(=O)=O)c(-c3ccc4c(n3)-c3cc5c(F)cccc5n3C(CNC(=O)[C@@H](NC(=O)OC)C(C)C)O4)cc12 (stereo partly drawn) [Compound 125],IC50,"[1]; Hepatitis C virus, 96 h",5.1 nM
same,IC50,[2],3.4 nM
CNC(=O)c1c(-c2ccc(F)cc2)oc2cc(N(C)S(C)(=O)=O)c(-c3ccc4c(n3)-c3cc5c(F)cccc5n3C(CNC(=O)[C@@H]3CCCN3C(=O)OC)O4)cc12 (stereo partly drawn) [Compound 126],IC50,[1],2.7 nM
same,IC50,[2],1.4 nM
CNC(=O)c1c(-c2ccc(F)cc2)oc2cc(N(C)S(C)(=O)=O)c(-c3ccc4c(n3)-c3cc5c(F)cccc5n3C(CNC(=O)[C@@H](NC(=O)OC)C(C)C)O4)cc12 (stereo partly drawn) [Compound 127],IC50,[1],3.5 nM
same,IC50,[2],1.6 nM
"CNC(=O)c1c(-c2ccc(F)cc2)oc2cc(N(C)S(C)(=O)=O)c(-c3ccc4c(n3)-c3cc5c(F)cccc5n3C(CNS(C)(=O)=O)O4)cc12 (stereo not drawn) [Compound 128, 5-(11-fluoro-6-(methylsulfonamidomethyl)-6H-pyrido[2′,3′:5,6][1,3]oxazino[3,4-a]indol-2-yl)-2-(4-fluorophenyl)-N-methyl-6-(N-methylmethylsulfonamido)benzofuran-3-carboxamide]",IC50,"[1]; Hepatitis C virus, 96 h",2.6 nM
same,IC50,"[2]; Hepatitis C virus, 96 h",0.9 nM
CNC(=O)c1c(-c2ccc(F)cc2)oc2cc(N(C)S(C)(=O)=O)c(-c3ccc4c(n3)-c3cc5c(F)cccc5n3C(CNC(C)=O)O4)cc12 (stereo not drawn) [Compound 129],IC50,[1],1.7 nM
same,IC50,[2],2.1 nM
CNC(=O)c1c(-c2ccc(F)cc2)oc2cc(N(C)S(C)(=O)=O)c(-c3ccc4c(n3)-c3cc5c(F)cccc5n3C(CNC(C)=O)O4)cc12 (stereo not drawn) [Compound 130],IC50,[1],3 nM
same,IC50,[2],3 nM
"CNC(=O)c1c(-c2ccc(F)cc2)oc2cc(N(C)S(C)(=O)=O)c(-c3ccc4c(c3)-c3c(Cl)c5ccccc5n3C(C3CC3)O4)cc12 (stereo not drawn) [Compound 131, 5-(12-chloro-6-cyclopropyl-6H-benzo[5,6][1,3]oxazino[3,4-a]indol-2-yl)-2-(4-fluorophenyl)-N-methyl-6-(N-methylmethylsulfonamido)benzofuran-3-carboxamide]",IC50,"[1]; Hepatitis C virus, 96 h",79 nM
same,IC50,"[2]; Hepatitis C virus, 96 h",50 nM
CNC(=O)c1c(-c2ccc(F)cc2)oc2cc(N(C)S(C)(=O)=O)c(-c3ccc4c(c3)-c3cc5ccccc5n3C(C3CC3)O4)cc12 (stereo not drawn) [Compound 132],IC50,"[1]; Hepatitis C virus, 96 h",4.8 nM
same,IC50,"[2]; Hepatitis C virus, 96 h",7.9 nM
"CNC(=O)c1c(-c2ccc(F)cc2)oc2cc(N(C)S(C)(=O)=O)c(-c3ccc4c(c3)-c3nc5ccccc5n3CO4)cc12 [Compound 133, 5-(6H-benzo[e]benzo[4,5]imidazo[1,2-c][1,3]oxazin-2-yl)-2-(4-fluorophenyl)-N-methyl-6-(N-methylmethylsulfonamido)benzofuran-3-carboxamide]",IC50,"[1]; Hepatitis C virus, 96 h",2.6 nM
same,IC50,"[2]; Hepatitis C virus, 96 h",3.2 nM
CNC(=O)c1c(-c2ccc(F)cc2)oc2cc(N(C)S(C)(=O)=O)c(-c3ccc4c(c3)-c3nc5cccc(F)c5n3CO4)cc12 [Compound 134],IC50,"[1]; Hepatitis C virus, 96 h",4 nM
same,IC50,"[2]; Hepatitis C virus, 96 h",2.9 nM
CNC(=O)c1c(-c2ccc(F)cc2)oc2cc(N(C)S(C)(=O)=O)c(-c3ccc4c(c3)-c3nc5cccnc5n3CO4)cc12 [Compound 135],IC50,"[1]; Hepatitis C virus, 96 h",2.4 nM
same,IC50,"[2]; Hepatitis C virus, 96 h",2.4 nM
CNC(=O)c1c(-c2ccc(F)cc2)oc2cc(N(C)S(C)(=O)=O)c(-c3ccc4c(n3)-c3nc5ccccc5n3CO4)cc12 [Compound 136],IC50,"[1]; Hepatitis C virus, 96 h",3.5 nM
same,IC50,"[2]; Hepatitis C virus, 96 h",2.9 nM
CNC(=O)c1c(-c2ccc(F)cc2)oc2cc(N(C)S(C)(=O)=O)c(-c3ccc4c(n3)-c3nc5cccnc5n3CO4)cc12 [Compound 137],IC50,"[1]; Hepatitis C virus, 96 h",44 nM
same,IC50,"[2]; Hepatitis C virus, 96 h",7.9 nM
CNC(=O)c1c(-c2ccc(F)cc2)oc2cc(N(C)S(C)(=O)=O)c(-c3cc4c(cn3)OCn3c-4nc4cccnc43)cc12 [Compound 138],IC50,"[1]; Hepatitis C virus, 96 h",62 nM
same,IC50,"[2]; Hepatitis C virus, 96 h",19 nM
CNC(=O)c1c(-c2ccc(F)cc2)oc2cc(N(C)S(C)(=O)=O)c(-c3ccc4c(n3)-c3nc5c(F)cccc5n3CO4)cc12 [Compound 139],IC50,"[1]; Hepatitis C virus, 96 h",1.9 nM
same,IC50,"[2]; Hepatitis C virus, 96 h",1.9 nM
CNC(=O)c1c(-c2ccc(F)cc2)oc2cc(N(C)S(C)(=O)=O)c(-c3ccc4c(n3)-c3nc5cccc(F)c5n3CO4)cc12 [Compound 140],IC50,"[1]; Hepatitis C virus, 96 h",7.9 nM
same,IC50,"[2]; Hepatitis C virus, 96 h",5.9 nM
"CNC(=O)c1c(-c2ccc(F)cc2)oc2cc(N(C)S(C)(=O)=O)c(-c3cnc4c(c3)-c3nc5c(n3CO4)CCCC5)cc12 [Compound 141, 2-(4-fluorophenyl)-N-methyl-6-(N-methylmethylsulfonamido)-5-(8,9,10,11-tetrahydro-6H-benzo[4,5]imidazo[1,2-c]pyrido[3,2-e][1,3]oxazin-2-yl)benzofuran-3-carboxamide]",IC50,"[1]; Hepatitis C virus, 96 h",2.4 nM
same,IC50,"[2]; Hepatitis C virus, 96 h",2.4 nM
"CNC(=O)c1c(-c2ccc(F)cc2)oc2cc(N(C)S(C)(=O)=O)c(-c3ccc4c(c3)-c3nc5ccccn5c3CO4)cc12 [Compound 142, 5-(6H-chromeno[4′,3′:4,5]imidazo[1,2-a]pyridin-2-yl)-2-(4-fluorophenyl)-N-methyl-6-(N-methylmethylsulfonamido)benzofuran-3-carboxamide]",IC50,"[1]; Hepatitis C virus, 96 h",4.1 nM
same,IC50,"[2]; Hepatitis C virus, 96 h",4 nM
CNC(=O)c1c(-c2ccc(F)cc2)oc2cc(N(C)S(C)(=O)=O)c(-c3ccc4c(c3)-c3nc5ccc(F)cn5c3CO4)cc12 [Compound 143],IC50,"[1]; Hepatitis C virus, 96 h",15 nM
same,IC50,"[2]; Hepatitis C virus, 96 h",8 nM
"CNC(=O)c1c(-c2ccc(F)cc2)oc2cc(N(C)S(C)(=O)=O)c(-c3cnc4c(c3)-c3nc5ccccn5c3CO4)cc12 [Compound 144, 2-(4-fluorophenyl)-N-methyl-6-[methyl(methylsulfonyl)amino]-5-(6H pyrido[1″,2″:1′,2′]imidazo[4′,5′:4,5]pyrano[2,3-b]pyridin-2-yl)-1-benzofuran-3-carboxamide]",IC50,"[1]; Hepatitis C virus, 96 h",2.9 nM
same,IC50,"[2]; Hepatitis C virus, 96 h",1.9 nM
"CNC(=O)c1c(-c2ccc(F)cc2)oc2cc(N(C)S(C)(=O)=O)c(-c3ccc4c(c3)-c3nc5ccccn5c3CCO4)cc12 [Compound 145, 5-(6,7-dihydrobenzo[2′,3′]oxepino[4′,5′:4,5]imidazo[1,2-a]pyridin-2-yl)-2-(4-fluorophenyl)-N-methyl-6-(N-methylmethylsulfonamido)benzofuran-3-carboxamide]",IC50,"[1]; Hepatitis C virus, 96 h",5.3 nM
same,IC50,"[2]; Hepatitis C virus, 96 h",2.7 nM
"CNC(=O)c1c(-c2ccc(F)cc2)oc2cc(N(C)S(C)(=O)=O)c(-c3ccc4c(n3)-c3nn5ccccc5c3CO4)cc12 [Compound 146, 2-(4-fluorophenyl)-N-methyl-5-(1-aza-6H-chromeno[4′,3′:3,4]pyrazolo[1,5-a]pyridin-2-yl)-6-(N-methylmethylsulfonamido)benzofuran-3-carboxamide]",IC50,"[1]; Hepatitis C virus, 96 h",225 nM
same,IC50,"[2]; Hepatitis C virus, 96 h",37 nM
"CNC(=O)c1c(-c2ccc(F)cc2F)oc2cc(N(C)S(C)(=O)=O)c(-c3ccc4c(n3)-c3cc5c(F)cccc5n3CO4)cc12 [Compound 147, 2-(2,4-difluorophenyl)-5-(11-fluoro-6H-pyrido[2′,3′:5,6][1,3]oxazino[3,4-a]indol-2-yl)-N-methyl-6-(N-methylmethylsulfonamido)benzofuran-3-carboxamide]",IC50,"[1]; Hepatitis C virus, 96 h",9 nM
same,IC50,"[2]; Hepatitis C virus, 96 h",6.9 nM
CNC(=O)c1c(-c2ccc(F)cc2F)oc2cc(N(C)S(C)(=O)=O)c(-c3ccc4c(n3)-c3cc5ccccc5n3CO4)cc12 [Compound 148],IC50,"[1]; Hepatitis C virus, 96 h",2.8 nM
same,IC50,"[2]; Hepatitis C virus, 96 h",4.6 nM
CNC(=O)c1c(-c2ccc(F)cc2F)oc2cc(N(C)S(C)(=O)=O)c(-c3ncc4c(n3)-c3cc5c(F)cccc5n3CO4)cc12 [Compound 149],IC50,"[1]; Hepatitis C virus, 96 h",1.2 nM
same,IC50,"[2]; Hepatitis C virus, 96 h",2.2 nM
